{
  "source": "patent US8372848B2",
  "about": "“Melanin-concentrating hormone receptor antagonists and methods of use” (Mixture Sciences, Inc., priority 2004, dated 2013)",
  "key": {"rats [1]": {"tested_on": "rats", "assay": "Spontaneous food and water intake after 1 hour deprivation, Example VIII", "type": "in vivo, rat", "conditions": "10 nM i.c.v., start of dark cycle; for 30 minute food intake following 1 hour food/water deprivation, TPI treated versus control: b181 words it as control greater than treated, p less than 0.005", "description": "In this example, adult male Sprague-Dawley rats, weighing 350-400 g were randomly divided into two (2) groups of eight (8) rats each (Groups I and II). The animals were housed individually in a room having an ambient temperature of 20 degrees C., a light cycle from 07:00 to 19:00 each day and a dark cycle from 19:00 to 07:00.\nIn a first experiment, food (rat chow) and water were made available ad libitum except during a 1 hour food/water deprivation period from 18:00 to 19:00. At the end of the 1 hour food/water deprivation period the animals in Group I (n=8) received 0.9% saline by i.c.v. injection and the animals in Group II (n−8) received 10 nM TPI 1361-17 (Formula IV) by i.c.v. injection. Immediately after dosing, and upon commencement of the darkness cycle, food (rat chow) and water were again made available ad libitum and food and water intake were measured for the next thirty (30) minutes. Data were compared using the non-parametric t-Test with the 0.05 level of probability and below being defined as significant."}, "rats [2]": {"tested_on": "rats", "assay": "Conditioned place aversion (CPA), Example VII", "type": "in vivo, rat", "conditions": "10 nmole i.c.v. on conditioning days 2,3; test day 4; listed as TPI", "description": "Rats were randomly divided into two (2) groups of eight (8) rats each (Groups I and II). Testing was performed in four identical place-conditioning chambers (43×43×30.5 cm) connected to a common interface and computer (MED Associates, Inc., St. Albans, Vt.). Test chambers had two equal compartments, each with unique sensory cues. One compartment had black and white striped walls, a stainless-steel wire mesh floor (0.16-cm wire with 1.27-cm openings), corncob bedding, and lemon-scented water applied to the walls immediately before each test. The other compartment had white walls with black dots, stainless-steel grid floor (0.48-cm rods placed 1.6 cm apart), wood-chip bedding, and banana-scented water applied to the walls. The two compartments were separated by a middle wall with a black guillotine door in the center. All rats were weighed and acclimated to the test room for 20 min each day before being placed into the apparatus.\nThe CPA test consisted of three phases. During the preconditioning phase (day 1), the animals were placed into the chamber for 15 min. During the conditioning phase (day 2,3), animals were injected i.c.v with either 0 (Group I—n=8) or 10 nmole (Group 2—n=8) of TPI and confined to one side for 20 min. […] The activity of the animals was monitored for 15 min."}},
  "note": "“Also recorded” adds a separate entry of the source.",
  "data": [
    {"smiles": "C[C@@H](CNCc1ccccc1)N1C[C@H](CCCNC(=N)N)N(CCc2cccc(F)c2)C1=S", "note": "[TPI 1361-17, N-(3-{(4S)-1-[(1S)-2-(benzylamino)-1-methylethyl]-3-[2-(3-fluorophenyl)ethyl]-2-thioxoimidazolidin-4-yl}propyl)guanidine]", "values": [
      {"measurement": "30 minute water intake following 1 hour food/water deprivation, TPI treated versus control", "setting": "rats [1]", "value": "not significantly different"},
      {"measurement": "30 minute food intake following 1 hour food/water deprivation, TPI treated versus control", "setting": "rats [1]", "value": "significantly greater"},
      {"measurement": "30 minute food intake following 1 hour food/water deprivation, TPI treated versus control", "setting": "rats [1]; listed as TPI", "value": "significant decrease"},
      {"measurement": "30 minute water intake following 1 hour food/water deprivation, TPI treated versus control", "setting": "rats [1]; listed as TPI", "value": "non-significant decrease"},
      {"measurement": "Conditioned place aversion", "setting": "rats [2]", "value": "did not cause conditioned place aversion; also recorded: lack of conditioned place aversion"}
    ]}
  ]
}
